# Like-named read-outs stand apart in the source and are kept apart here. Where a SMILES comes first, the peptide text is derived from it. [ ]: non-standard residue; d: D form. The star is where a group is joined. DOTA = O=C(O)CN1CCN(CC(=O)O)CCN(CC(=O)*)CCN(CC(=O)O)CC1
# Assays:
# [1] = Biodistribution experiments in normal mice after i.v. injection; format: in vivo; details: i.v.; for tissue uptake dose at 10 min / tissue uptake dose at 1 h / tissue uptake dose at 3 h: male, ddY, mouse, in vivo, iv, total radioactivity; for tissue uptake dose at 10 min / tissue uptake dose at 1 h / tissue uptake dose at 3 h / F/B ratio (Femur:blood ratio): mice, mean (SD)
# Method in brief: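 Male ddY mice (6 weeks, 27–32 g) received tracer i.v. (37–740 kBq/100 μL); 4–5 per group sacrificed at 10, 60 and 180 min. Weighed tissues and whole left femur (bone) gamma-counted with background and decay correction.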
# [2] = Urine analyses by RP-HPLC after i.v. injection; format: in vivo; details: mice, urine from bladder at 1 h post-injection
# Description: ^67Ga-DOTA-(L-Asp)14 was prepared according to a method described previously. ^67Ga-DOTA-(L-Asp)14 or ^67Ga-DOTA-(D-Asp)14 solution (370 kBq / 200 μL) was intravenously injected to 6-week-old male ddY mice. At 1 h post-injection, mice were sacrificed and their […] were taken from the bladders. After ultrafiltration (Microcon-30, Merck KGaA), the filtrate samples were analyzed by RP-HPLC at a flow rate of 1 mL/min with a gradient mobile phase from water containing 0.1% TFA to 20% methanol in water containing 0.1% TFA for 20 min.
compound,measurement,setting,value
"O=C(O)C[C@@H](NC(=O)[C@@H](CC(=O)O)NC(=O)[C@@H](CC(=O)O)NC(=O)[C@@H](CC(=O)O)NC(=O)[C@@H](CC(=O)O)NC(=O)[C@@H](CC(=O)O)NC(=O)[C@@H](CC(=O)O)NC(=O)[C@@H](CC(=O)O)NC(=O)[C@@H](CC(=O)O)NC(=O)[C@@H](CC(=O)O)NC(=O)[C@@H](CC(=O)O)NC(=O)[C@@H](CC(=O)O)NC(=O)[C@@H](CC(=O)O)NC(=O)[C@@H](CC(=O)O)NC(=O)CN1CCN(CC(=O)O)CCN(CC(=O)O)CCN(CC(=O)O)CC1)C(=O)O [^67Ga-DOTA-(D-Asp)14, metal not drawn] ({DOTA}-[dD][dD][dD][dD][dD][dD][dD][dD][dD][dD][dD][dD][dD][dD]-OH)",tissue uptake dose at 10 min,"[1]; 10 min after injection, footnote b, read-out: Biodistribution of radioactivity, Stomach",0.28 %ID
same,tissue uptake dose at 10 min,"[1]; 10 min after injection, read-out: Biodistribution of radioactivity, Blood",2.46 %ID
same,tissue uptake dose at 10 min,"[1]; 10 min after injection, read-out: Biodistribution of radioactivity, Bone (Femur)",11.9 %ID
same,tissue uptake dose at 10 min,"[1]; 10 min after injection, read-out: Biodistribution of radioactivity, Brain",0.06 %ID
same,tissue uptake dose at 10 min,"[1]; 10 min after injection, read-out: Biodistribution of radioactivity, Heart",0.94 %ID
same,tissue uptake dose at 10 min,"[1]; 10 min after injection, read-out: Biodistribution of radioactivity, Kidney",8.15 %ID
same,tissue uptake dose at 10 min,"[1]; 10 min after injection, read-out: Biodistribution of radioactivity, Large-intestine",0.4 %ID
same,tissue uptake dose at 10 min,"[1]; 10 min after injection, read-out: Biodistribution of radioactivity, Liver",0.51 %ID
same,tissue uptake dose at 10 min,"[1]; 10 min after injection, read-out: Biodistribution of radioactivity, Lung",1.75 %ID
same,tissue uptake dose at 10 min,"[1]; 10 min after injection, read-out: Biodistribution of radioactivity, Muscle",0.77 %ID
same,tissue uptake dose at 10 min,"[1]; 10 min after injection, read-out: Biodistribution of radioactivity, Pancreas",0.88 %ID
same,tissue uptake dose at 10 min,"[1]; 10 min after injection, read-out: Biodistribution of radioactivity, Small-intestine",0.55 %ID
same,tissue uptake dose at 10 min,"[1]; 10 min after injection, read-out: Biodistribution of radioactivity, Spleen",0.48 %ID
same,tissue uptake dose at 1 h,"[1]; 60 min after injection, footnote b, read-out: Biodistribution of radioactivity, Stomach",0.07 %ID
same,tissue uptake dose at 1 h,"[1]; 60 min after injection, read-out: Biodistribution of radioactivity, Blood",0.09 %ID
same,tissue uptake dose at 1 h,"[1]; 60 min after injection, read-out: Biodistribution of radioactivity, Bone (Femur)",13 %ID
same,tissue uptake dose at 1 h,"[1]; 60 min after injection, read-out: Biodistribution of radioactivity, Brain",0.01 %ID
same,tissue uptake dose at 1 h,"[1]; 60 min after injection, read-out: Biodistribution of radioactivity, Heart",0.18 %ID
same,tissue uptake dose at 1 h,"[1]; 60 min after injection, read-out: Biodistribution of radioactivity, Kidney",1.21 %ID
same,tissue uptake dose at 1 h,"[1]; 60 min after injection, read-out: Biodistribution of radioactivity, Large-intestine",0.1 %ID
same,tissue uptake dose at 1 h,"[1]; 60 min after injection, read-out: Biodistribution of radioactivity, Liver",0.15 %ID
same,tissue uptake dose at 1 h,"[1]; 60 min after injection, read-out: Biodistribution of radioactivity, Lung",0.28 %ID
same,tissue uptake dose at 1 h,"[1]; 60 min after injection, read-out: Biodistribution of radioactivity, Muscle",0.16 %ID
same,tissue uptake dose at 1 h,"[1]; 60 min after injection, read-out: Biodistribution of radioactivity, Pancreas",0.27 %ID
same,tissue uptake dose at 1 h,"[1]; 60 min after injection, read-out: Biodistribution of radioactivity, Small-intestine",0.18 %ID
same,tissue uptake dose at 1 h,"[1]; 60 min after injection, read-out: Biodistribution of radioactivity, Spleen",0.12 %ID
same,tissue uptake dose at 3 h,"[1]; 180 min after injection, footnote b, read-out: Biodistribution of radioactivity, Stomach",0.06 %ID
same,tissue uptake dose at 3 h,"[1]; 180 min after injection, read-out: Biodistribution of radioactivity, Blood",0.03 %ID
same,tissue uptake dose at 3 h,"[1]; 180 min after injection, read-out: Biodistribution of radioactivity, Bone (Femur)",14.8 %ID
same,tissue uptake dose at 3 h,"[1]; 180 min after injection, read-out: Biodistribution of radioactivity, Brain",0.01 %ID
same,tissue uptake dose at 3 h,"[1]; 180 min after injection, read-out: Biodistribution of radioactivity, Heart",0.11 %ID
same,tissue uptake dose at 3 h,"[1]; 180 min after injection, read-out: Biodistribution of radioactivity, Kidney",0.54 %ID
same,tissue uptake dose at 3 h,"[1]; 180 min after injection, read-out: Biodistribution of radioactivity, Large-intestine",0.2 %ID
same,tissue uptake dose at 3 h,"[1]; 180 min after injection, read-out: Biodistribution of radioactivity, Liver",0.05 %ID
same,tissue uptake dose at 3 h,"[1]; 180 min after injection, read-out: Biodistribution of radioactivity, Lung",0.03 %ID
same,tissue uptake dose at 3 h,"[1]; 180 min after injection, read-out: Biodistribution of radioactivity, Muscle",0.16 %ID
same,tissue uptake dose at 3 h,"[1]; 180 min after injection, read-out: Biodistribution of radioactivity, Pancreas",0.14 %ID
same,tissue uptake dose at 3 h,"[1]; 180 min after injection, read-out: Biodistribution of radioactivity, Small-intestine",0.12 %ID
same,tissue uptake dose at 3 h,"[1]; 180 min after injection, read-out: Biodistribution of radioactivity, Spleen",0.12 %ID
same,F/B ratio (Femur:blood ratio),[1]; 10 min after injection,4.90 (0.70)
same,F/B ratio (Femur:blood ratio),[1]; 60 min after injection,180.99 (91.94)
same,F/B ratio (Femur:blood ratio),[1]; 180 min after injection,526.37 (130.49)
same,Accumulation of radioactivity in bone (in words),[1]; normal mice,high accumulation and retention of radioactivity in bone
same,Radioactivity in the kidneys (in words),[1]; normal mice,extremely low accumulation of radioactivity in the kidneys
same,Ratio of the intact complex in urine,[2],85.8 ± 17.4%
